Experiment [1] relates to MV4-11. As to the kind of experiment: Cell cycle arrest in human MV411 cells assessed as accumulation at G0/G1 phase at 0.01 uM after 48 hrs by propidium iodide assay. The experiment is classed as functional.
In experiment [2] the target is T1, Aurora kinase A (Homo sapiens, UniProt O14965).
T1 sequence (O14965 whole entry): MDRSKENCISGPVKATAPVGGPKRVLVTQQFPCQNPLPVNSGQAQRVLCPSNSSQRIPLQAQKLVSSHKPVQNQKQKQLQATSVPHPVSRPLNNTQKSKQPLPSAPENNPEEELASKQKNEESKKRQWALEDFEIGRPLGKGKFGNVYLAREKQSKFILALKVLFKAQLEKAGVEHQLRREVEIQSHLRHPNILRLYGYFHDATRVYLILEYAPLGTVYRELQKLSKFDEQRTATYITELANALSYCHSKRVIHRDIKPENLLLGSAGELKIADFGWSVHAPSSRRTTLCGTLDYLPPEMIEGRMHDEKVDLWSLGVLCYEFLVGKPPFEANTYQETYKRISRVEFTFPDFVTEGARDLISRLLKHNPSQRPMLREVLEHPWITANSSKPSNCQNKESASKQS
As to the kind of experiment: Inhibition of Aurora A by HTRF assay.

In experiment [3] the test system is MV4-11. Description: Cell cycle arrest in human MV411 cells assessed as accumulation at S phase at 1 uM after 48 hrs by propidium iodide assay. Format: functional.
Experiment [4] concerns the target Epidermal growth factor receptor (Homo sapiens, UniProt P00533). As to the kind of experiment: Inhibition of EGFR by HTRF assay.
Experiment [5] concerns the target Insulin receptor (Homo sapiens, UniProt P06213). Description: Inhibition of insulin receptor by HTRF assay. On the technique in general: TR-FRET usually uses a lanthanide donor and a delayed reading to cut background.
The target of experiment [6] is T2, Receptor-type tyrosine-protein kinase FLT3 (Homo sapiens, UniProt P36888).
T2 sequence (P36888 whole entry): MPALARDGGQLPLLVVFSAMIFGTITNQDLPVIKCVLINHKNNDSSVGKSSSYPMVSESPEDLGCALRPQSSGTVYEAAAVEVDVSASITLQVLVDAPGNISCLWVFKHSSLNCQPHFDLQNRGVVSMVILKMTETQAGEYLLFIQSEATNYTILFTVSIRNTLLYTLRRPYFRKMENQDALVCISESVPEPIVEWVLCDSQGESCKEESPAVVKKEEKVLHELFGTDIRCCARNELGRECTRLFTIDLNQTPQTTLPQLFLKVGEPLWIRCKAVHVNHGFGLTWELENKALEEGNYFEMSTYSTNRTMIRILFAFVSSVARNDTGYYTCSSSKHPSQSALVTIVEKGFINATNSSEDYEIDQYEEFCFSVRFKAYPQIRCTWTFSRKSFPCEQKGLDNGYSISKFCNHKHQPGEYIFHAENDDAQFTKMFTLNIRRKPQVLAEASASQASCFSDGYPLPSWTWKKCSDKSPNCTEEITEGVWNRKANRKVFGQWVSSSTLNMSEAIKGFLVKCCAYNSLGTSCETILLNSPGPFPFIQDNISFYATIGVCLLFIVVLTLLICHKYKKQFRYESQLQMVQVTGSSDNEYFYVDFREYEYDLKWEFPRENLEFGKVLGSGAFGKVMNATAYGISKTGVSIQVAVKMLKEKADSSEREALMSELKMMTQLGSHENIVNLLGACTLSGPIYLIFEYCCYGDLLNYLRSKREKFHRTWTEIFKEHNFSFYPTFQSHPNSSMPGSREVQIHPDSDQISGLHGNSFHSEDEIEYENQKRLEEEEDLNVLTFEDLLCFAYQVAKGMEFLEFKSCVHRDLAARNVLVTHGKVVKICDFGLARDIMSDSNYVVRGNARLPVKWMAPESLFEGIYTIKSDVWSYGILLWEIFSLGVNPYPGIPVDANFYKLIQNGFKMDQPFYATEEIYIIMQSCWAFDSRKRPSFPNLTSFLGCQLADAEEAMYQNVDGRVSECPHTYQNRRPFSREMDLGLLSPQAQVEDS
As to the kind of experiment: Inhibition of FLT3 by HTRF assay.

The subject of experiment [7] is MV4-11. As to the kind of experiment: Antiproliferative activity against […] FLT3 expressing human MV411 cells after 72 hrs by WST8 assay. Format: functional, cell-based. To be noted: MV4-11, 72 h. Background: Tetrazolium assays rely on reduction of a dye to a coloured formazan, in cell work by metabolically active cells.
Experiment [8] relates to MV4-11. Description: Cell cycle arrest in human MV411 cells assessed as accumulation at G0/G1 phase at 0.1 uM after 48 hrs by propidium iodide assay. The experiment is classed as functional.
In experiment [9] the test system is MV4-11. As to the kind of experiment: Cell cycle arrest in human MV411 cells assessed as accumulation at S phase at 0.01 uM after 48 hrs by propidium iodide assay. The experiment is classed as functional.
Experiment [10] has as its system MV4-11. Description: Cell cycle arrest in human MV411 cells assessed as accumulation at G0/G1 phase at 1 uM after 48 hrs by propidium iodide assay. The experiment is classed as functional.
Experiment [11] in a line: Antiproliferative activity against human RS4:11 cells having FLT3-ITD mutation after 72 hrs by WST8 assay. Format: functional, cell-based. To be noted: RS4-11, 72 h.
Experiment [12] relates to MV4-11. As to the kind of experiment: Cell cycle arrest in human MV411 cells assessed as accumulation at S phase at 0.1 uM after 48 hrs by propidium iodide assay. Format: functional.
Experiment [13] relates to MV4-11. Description: Cell cycle arrest in human MV411 cells assessed as accumulation at sub-G1 phase at 0.1 uM after 48 hrs by propidium iodide assay. Format: functional.
The subject of experiment [14] is MV4-11. As to the kind of experiment: Cell cycle arrest in human MV411 cells assessed as accumulation at G2/M phase at 0.1 uM after 48 hrs by propidium iodide assay. Format: functional.
In experiment [15] the test system is MV4-11. As to the kind of experiment: Cell cycle arrest in human MV411 cells assessed as accumulation at sub-G1 phase at 1 uM after 48 hrs by propidium iodide assay. Format: functional.
Experiment [16] relates to MV4-11. As to the kind of experiment: Cell cycle arrest in human MV411 cells assessed as accumulation at G2/M phase at 0.01 uM after 48 hrs by propidium iodide assay. Format: functional.
Experiment [17] concerns the target Vascular endothelial growth factor receptor 2 (Homo sapiens, UniProt P35968). As to the kind of experiment: Inhibition of VEGFR2 by HTRF assay.
The subject of experiment [18] is MV4-11. Description: Cell cycle arrest in human MV411 cells assessed as accumulation at sub-G1 phase at 0.01 uM after 48 hrs by propidium iodide assay. Format: functional.
The target in experiment [19] is Hepatocyte growth factor receptor (Homo sapiens, UniProt P08581). Description: Inhibition of Met by HTRF assay.
The target of experiment [20] is Macrophage-stimulating protein receptor (Homo sapiens, UniProt Q04912). As to the kind of experiment: Inhibition of Ron by HTRF assay.
The test system of experiment [21] is MV4-11. Description: Cell cycle arrest in human MV411 cells assessed as accumulation at G2/M phase at 1 uM after 48 hrs by propidium iodide assay. Format: functional.

Activity and IC50 data for 23 compounds are collected here from ChEMBL document CHEMBL1155384 (Bioorg Med Chem Lett, 2010).

Sequence of Macrophage-stimulating protein receptor (Q04912 25-304 limits assumed): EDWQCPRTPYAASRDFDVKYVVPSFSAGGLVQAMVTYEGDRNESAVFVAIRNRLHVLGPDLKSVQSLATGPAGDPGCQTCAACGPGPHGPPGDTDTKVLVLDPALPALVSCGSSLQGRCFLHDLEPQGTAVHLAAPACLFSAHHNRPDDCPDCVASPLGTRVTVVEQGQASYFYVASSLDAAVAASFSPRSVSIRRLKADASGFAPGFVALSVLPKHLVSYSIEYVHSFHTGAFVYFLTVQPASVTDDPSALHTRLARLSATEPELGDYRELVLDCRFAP
Sequence of Macrophage-stimulating protein receptor (Q04912 310-1400 limits assumed): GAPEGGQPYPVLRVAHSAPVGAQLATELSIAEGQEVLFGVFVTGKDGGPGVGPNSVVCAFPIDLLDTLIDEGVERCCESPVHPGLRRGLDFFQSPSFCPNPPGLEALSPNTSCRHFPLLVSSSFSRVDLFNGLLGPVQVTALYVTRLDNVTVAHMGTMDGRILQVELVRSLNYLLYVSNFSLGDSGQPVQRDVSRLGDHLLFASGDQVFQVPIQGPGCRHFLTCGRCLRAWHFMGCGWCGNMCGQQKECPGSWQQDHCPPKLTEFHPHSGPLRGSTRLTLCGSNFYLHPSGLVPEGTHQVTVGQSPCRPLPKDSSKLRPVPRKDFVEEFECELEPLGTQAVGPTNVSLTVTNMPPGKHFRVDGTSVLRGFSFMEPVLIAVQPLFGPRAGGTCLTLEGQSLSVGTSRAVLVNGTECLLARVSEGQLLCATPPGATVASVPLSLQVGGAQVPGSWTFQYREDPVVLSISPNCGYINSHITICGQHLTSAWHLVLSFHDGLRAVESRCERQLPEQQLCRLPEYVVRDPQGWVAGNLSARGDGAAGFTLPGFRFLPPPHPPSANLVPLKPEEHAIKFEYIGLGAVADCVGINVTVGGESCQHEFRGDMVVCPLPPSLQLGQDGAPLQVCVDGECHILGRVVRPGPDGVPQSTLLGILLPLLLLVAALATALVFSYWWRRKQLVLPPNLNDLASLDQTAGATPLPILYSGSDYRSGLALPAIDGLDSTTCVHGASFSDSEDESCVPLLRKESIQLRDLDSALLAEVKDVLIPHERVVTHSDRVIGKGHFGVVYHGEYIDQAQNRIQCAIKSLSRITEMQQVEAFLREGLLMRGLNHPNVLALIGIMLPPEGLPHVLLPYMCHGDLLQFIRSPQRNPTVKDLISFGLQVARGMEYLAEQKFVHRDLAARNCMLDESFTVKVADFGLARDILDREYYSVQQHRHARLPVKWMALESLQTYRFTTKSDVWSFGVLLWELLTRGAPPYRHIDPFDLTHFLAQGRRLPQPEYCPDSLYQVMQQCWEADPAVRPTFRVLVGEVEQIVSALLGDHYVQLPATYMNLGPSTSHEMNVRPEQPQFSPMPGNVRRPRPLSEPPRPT
Sequence of Epidermal growth factor receptor (P00533 whole entry): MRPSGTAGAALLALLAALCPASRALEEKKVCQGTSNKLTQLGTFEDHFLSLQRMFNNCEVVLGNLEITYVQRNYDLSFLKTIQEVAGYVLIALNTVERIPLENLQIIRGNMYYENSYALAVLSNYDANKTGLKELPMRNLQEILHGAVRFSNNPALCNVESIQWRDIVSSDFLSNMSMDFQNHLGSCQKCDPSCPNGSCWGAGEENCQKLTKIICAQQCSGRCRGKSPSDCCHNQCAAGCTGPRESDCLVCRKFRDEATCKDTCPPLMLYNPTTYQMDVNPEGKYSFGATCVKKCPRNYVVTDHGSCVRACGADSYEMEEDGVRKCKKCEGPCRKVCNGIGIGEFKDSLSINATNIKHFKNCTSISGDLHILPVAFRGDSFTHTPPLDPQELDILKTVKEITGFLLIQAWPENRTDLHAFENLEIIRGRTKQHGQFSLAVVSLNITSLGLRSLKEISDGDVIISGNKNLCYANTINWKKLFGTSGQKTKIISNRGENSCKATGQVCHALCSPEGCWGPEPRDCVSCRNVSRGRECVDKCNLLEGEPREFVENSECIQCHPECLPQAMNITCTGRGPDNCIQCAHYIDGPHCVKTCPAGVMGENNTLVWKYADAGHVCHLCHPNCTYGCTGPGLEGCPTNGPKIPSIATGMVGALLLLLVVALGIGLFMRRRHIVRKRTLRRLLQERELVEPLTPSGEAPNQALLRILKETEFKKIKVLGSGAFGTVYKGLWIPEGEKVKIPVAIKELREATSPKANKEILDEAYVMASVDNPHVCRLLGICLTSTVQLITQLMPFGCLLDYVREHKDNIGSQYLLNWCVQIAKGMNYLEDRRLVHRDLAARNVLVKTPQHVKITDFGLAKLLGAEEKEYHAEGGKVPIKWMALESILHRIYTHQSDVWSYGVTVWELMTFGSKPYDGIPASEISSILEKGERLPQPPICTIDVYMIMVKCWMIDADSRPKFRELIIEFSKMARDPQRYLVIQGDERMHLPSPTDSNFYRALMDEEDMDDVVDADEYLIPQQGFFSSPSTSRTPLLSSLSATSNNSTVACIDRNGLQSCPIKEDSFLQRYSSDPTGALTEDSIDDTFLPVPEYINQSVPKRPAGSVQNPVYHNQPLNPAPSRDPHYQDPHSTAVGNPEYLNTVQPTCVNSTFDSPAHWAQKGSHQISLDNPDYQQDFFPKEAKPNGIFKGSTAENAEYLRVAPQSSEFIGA
Sequence of Vascular endothelial growth factor receptor 2 (P35968 whole entry): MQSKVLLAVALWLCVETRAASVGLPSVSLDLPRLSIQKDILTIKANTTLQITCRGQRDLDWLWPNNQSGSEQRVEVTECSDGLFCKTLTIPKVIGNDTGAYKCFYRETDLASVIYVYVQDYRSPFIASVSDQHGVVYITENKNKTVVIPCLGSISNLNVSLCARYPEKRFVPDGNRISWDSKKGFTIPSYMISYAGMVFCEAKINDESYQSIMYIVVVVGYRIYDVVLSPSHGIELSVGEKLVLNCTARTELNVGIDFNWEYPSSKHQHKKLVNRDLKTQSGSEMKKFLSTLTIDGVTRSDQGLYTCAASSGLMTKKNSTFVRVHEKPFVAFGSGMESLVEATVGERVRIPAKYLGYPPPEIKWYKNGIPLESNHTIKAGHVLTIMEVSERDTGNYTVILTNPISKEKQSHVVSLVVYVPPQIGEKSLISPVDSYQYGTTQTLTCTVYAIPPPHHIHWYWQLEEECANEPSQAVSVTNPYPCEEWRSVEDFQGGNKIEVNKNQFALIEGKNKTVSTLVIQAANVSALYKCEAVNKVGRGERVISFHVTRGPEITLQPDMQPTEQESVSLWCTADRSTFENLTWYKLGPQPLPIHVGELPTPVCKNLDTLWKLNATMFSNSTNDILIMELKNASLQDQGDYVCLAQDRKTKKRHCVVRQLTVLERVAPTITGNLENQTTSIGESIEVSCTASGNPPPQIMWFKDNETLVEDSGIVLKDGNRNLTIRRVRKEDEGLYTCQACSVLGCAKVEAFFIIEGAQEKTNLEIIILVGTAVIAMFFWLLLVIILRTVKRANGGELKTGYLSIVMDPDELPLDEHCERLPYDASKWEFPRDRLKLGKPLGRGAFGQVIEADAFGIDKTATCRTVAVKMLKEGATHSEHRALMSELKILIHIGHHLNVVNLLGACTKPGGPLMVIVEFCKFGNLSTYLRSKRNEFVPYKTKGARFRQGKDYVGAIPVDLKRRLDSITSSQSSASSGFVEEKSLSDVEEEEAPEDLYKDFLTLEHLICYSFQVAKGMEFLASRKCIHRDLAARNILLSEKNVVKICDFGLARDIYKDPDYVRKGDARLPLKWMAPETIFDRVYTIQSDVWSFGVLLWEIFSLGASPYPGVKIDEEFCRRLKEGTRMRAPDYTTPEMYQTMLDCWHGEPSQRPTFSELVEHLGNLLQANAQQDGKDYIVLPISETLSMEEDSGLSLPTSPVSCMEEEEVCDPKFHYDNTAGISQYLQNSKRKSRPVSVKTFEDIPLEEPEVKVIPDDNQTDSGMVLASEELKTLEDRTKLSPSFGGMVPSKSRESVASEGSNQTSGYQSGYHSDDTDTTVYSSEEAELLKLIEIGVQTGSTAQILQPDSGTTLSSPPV

Turning to `O=C1Nc2ccc(F)cc2/C1=C1/Nc2ccccc2/C1=N\O`, the Activity in experiment [1] was found to be 61.62%; in experiment [3], 2.85%; in experiment [8], 57.44%; in experiment [9], 16.55%; in [10] it was 58.06%; in experiment [12], 6.42%. In addition, the Activity in experiment [13] is recorded as 32.76%; in experiment [14], 2.91%; in experiment [15], 37.73%; in [16], 11.53%; in experiment [18], 9.24%; in [21] it was 1.05%. Besides, the IC50 in [2] is 1270 nM; in experiment [4] it was more than 10000 nM; in experiment [5], more than 10000 nM; in [6], 15 nM; in experiment [7], 72 nM; in experiment [11] it was 2210 nM. The IC50 in experiment [17] was 1530 nM; in experiment [19], more than 10000 nM; in experiment [20], more than 10000 nM.

For `O=C1Nc2ccc(OC(F)(F)F)cc2/C1=C1/Nc2ccccc2/C1=N\O`, the IC50 in [6] was more than 10000 nM; in experiment [7], more than 3550 nM; in experiment [11], 3360 nM.

With `CC(=O)N1/C(=C2\C(=O)Nc3ccccc32)C(=O)c2ccccc21`, the IC50 in [6], in experiment [7] and in [11] was more than 10000 nM each time.

Turning to `O=C1Nc2ccc([N+](=O)[O-])cc2/C1=C1/Nc2ccc(Br)cc2/C1=N/O`, the IC50 in experiment [6] was more than 10000 nM; in experiment [7], more than 270 nM; in [11], 160 nM.

With `Cc1cc(C)c2c(c1)/C(=C1/Nc3ccccc3/C1=N\O)C(=O)N2`, the values for the IC50 in experiment [6], in experiment [7] and in [11] were 952 nM, 2400 nM and more than 10000 nM, respectively.

Take `Cc1cc(Cl)cc2c1NC(=O)/C2=C1\Nc2ccccc2\C1=N/O`: the IC50 in experiment [6], in experiment [7] and in experiment [11] was more than 10000 nM in each case.

For `O=C1Nc2ccc(S(=O)(=O)O)cc2/C1=C1/Nc2ccccc2/C1=N\O`, the IC50 in experiment [6] was 9 nM; in [7], more than 10000 nM; in experiment [11], more than 10000 nM.

`Cc1ccc2c(c1)/C(=C1/Nc3ccccc3/C1=N\O)C(=O)N2`: the figures for the IC50 in experiment [6], in experiment [7] and in experiment [11] were 28 nM, 260 nM and 8560 nM, respectively.

Take `Cc1ccc2[nH]c(O)c(C3=Nc4ccccc4C3=O)c2c1`: the IC50 in [6] is 209 nM; in [7], 1540 nM; in [11] it was more than 10000 nM.

Consider `O=C1C(c2c(O)[nH]c3ccc(I)cc23)=Nc2ccccc21`, for which the IC50 is 4720 nM in experiment [6], 4790 nM in [7] and more than 10000 nM in experiment [11].

`O=C1C(c2c(O)[nH]c3ccc([N+](=O)[O-])cc23)=Nc2ccccc21`: the IC50 in [6], in experiment [7] and in [11] was more than 10000 nM each time.

Consider `O=Nc1c(-c2c(O)[nH]c3ccc(I)cc23)[nH]c2ccccc12`, for which the IC50 in [6] worked out at 418 nM; in experiment [7] it was 360 nM; in experiment [11] it was 1450 nM.

With `O=C1C(c2c(O)[nH]c3ccc(Cl)cc23)=Nc2ccccc21`, the IC50 in [6] is 212 nM; in experiment [7] it was 7000 nM; in experiment [11], more than 10000 nM.

Turning to `O=C1C(c2c(O)[nH]c3ccc(F)cc23)=Nc2ccccc21`, the IC50 in experiment [6] is 10100 nM; in experiment [7] it was more than 10000 nM; in experiment [11] it was more than 10000 nM.

Take `O=C1C(c2c(O)[nH]c3ccc(S(=O)(=O)O)cc23)=Nc2ccccc21`: the figures for the IC50 in experiment [6], in [7] and in experiment [11] were 280 nM, more than 10000 nM and more than 10000 nM, respectively.

With `O=Nc1c(-c2c(O)[nH]c3ccc([N+](=O)[O-])cc23)[nH]c2ccccc12`, the IC50 in experiment [6] is 62 nM; in [7] it was 450 nM; in experiment [11] it was 560 nM.

On to `O=C1Nc2ccc(Cl)cc2/C1=C1/Nc2ccccc2/C1=N\O`, for which the IC50 turned out to be 82 nM in experiment [6], 220 nM in experiment [7] and 1580 nM in experiment [11].

In the case of `Nc1ccc2c(c1)/C(=C1/Nc3ccccc3C1=O)C(=O)N2`, the IC50 in experiment [6] was determined as 359 nM; in experiment [7], 4300 nM; in experiment [11], 4670 nM.

Consider `Nc1ccc2c(c1)/C(=C1/Nc3ccccc3/C1=N\O)C(=O)N2`, for which the IC50 in experiment [6] worked out at 128 nM; in [7], 1650 nM; in experiment [11], 3340 nM.

As for `Nc1ccn([C@@H]2O[C@H](CO)[C@@H](O)[C@@H]2O)c(=O)n1` [CYTARABINE], the IC50 in [7] turned out to be 3360 nM; in [11], 260 nM.

Turning to `O=Nc1c(-c2c(O)[nH]c3ccccc23)[nH]c2ccccc12` [INDIRUBIN-3-MONOXIME], the IC50 worked out at 33 nM in experiment [6], 150 nM in [7] and 3560 nM in [11].

`O=C1Nc2ccccc2/C1=C1/Nc2ccccc2C1=O` [INDIRUBIN]: the IC50 in [6], in experiment [7] and in experiment [11] was more than 10000 nM in each case.

With `C[C@]12O[C@H](C[C@]1(O)CO)n1c3ccccc3c3c4c(c5c6ccccc6n2c5c31)CNC4=O` [LESTAURTINIB], the IC50 in experiment [7] was found to be 9 nM; in experiment [11] it was 120 nM.

As usually defined, the IC50 is the concentration that inhibits the measured activity by half. High values mean weaker potency in that assay, low ones greater potency in that assay.
